Data taken from ChEMBL document CHEMBL3044795, “Synthesis and biological evaluation of novel benzoquinones as potential antimicrobial agents” (2013).
In brackets after ≈: the same amount, converted by molar mass.

Columns and labels:
Format in all cases: functional
[1] = system: Pseudomonas aeruginosa; experiment: Antibacterial activity against Pseudomonas aeruginosa ATCC 10145 assessed as growth inhibition after 24 hr; conditions: ATCC 10145, 24 h
[2] = system: Candida albicans; experiment: Antifungal activity against Candida albicans DSM 70014 assessed as diamater of growth inhibition zone after 48 hr by agar cup diffusion method
[3] = system: Staphylococcus aureus; experiment: Antibacterial activity against Staphylococcus aureus DSM 1104 assessed as diamater of growth inhibition zone after 24 hr by agar cup diffusion method
[4] = system: Candida albicans; experiment: Antifungal activity against Candida albicans DSM 70014 assessed as growth inhibition after 48 hr by two-fold serial dilution method; conditions: DSM 70014, 48 h
[5] = system: Candida albicans; experiment: Antifungal activity against Candida albicans DSM 70014 assessed as growth inhibition after 48 hr; conditions: DSM 70014, 48 h
[6] = system: Pseudomonas aeruginosa; experiment: Ratio of Ampicillin MIC to compound MIC for Pseudomonas aeruginosa ATCC 10145
[7] = system: Escherichia coli; experiment: Antibacterial activity against Escherichia coli ATCC 11775 assessed as diamater of growth inhibition zone after 24 hr by agar cup diffusion method
[8] = system: Staphylococcus aureus; experiment: Antibacterial activity against Staphylococcus aureus DSM 1104 assessed as growth inhibition after 24 hr; conditions: DSM 1104, 24 h
[9] = system: Escherichia coli; experiment: Antibacterial activity against Escherichia coli ATCC 11775 assessed as growth inhibition after 24 hr by two-fold serial dilution method; conditions: ATCC 11775, 24 h
[10] = system: Bacillus subtilis; experiment: Antibacterial activity against Bacillus subtilis ATCC 6633 assessed as growth inhibition after 24 hr; conditions: ATCC 6633, 24 h
[11] = system: Pseudomonas aeruginosa; experiment: Antibacterial activity against Pseudomonas aeruginosa ATCC 10145 assessed as diamater of growth inhibition zone after 24 hr by agar cup diffusion method
[12] = system: Escherichia coli; experiment: Antibacterial activity against Escherichia coli ATCC 11775 assessed as growth inhibition after 24 hr; conditions: ATCC 11775, 24 h
[13] = system: Staphylococcus aureus; experiment: Antibacterial activity against Staphylococcus aureus DSM 1104 assessed as growth inhibition after 24 hr by two fold serial dilution method; conditions: DSM 1104, 24 h
[14] = system: Bacillus subtilis; experiment: Antibacterial activity against Bacillus subtilis ATCC 6633 assessed as diamater of growth inhibition zone after 24 hr by agar cup diffusion method
[15] = system: Pseudomonas aeruginosa; experiment: Antibacterial activity against Pseudomonas aeruginosa ATCC 10145 assessed as growth inhibition after 24 hr by two-fold serial dilution method; conditions: ATCC 10145, 24 h
[16] = system: Bacillus subtilis; experiment: Antibacterial activity against Bacillus subtilis ATCC 6633 assessed as growth inhibition after 24 hr by two fold serial dilution method; conditions: ATCC 6633, 24 h
[17] = system: Escherichia coli; experiment: Ratio of compound MIC to Ampicillin MIC for Escherichia coli ATCC 11775

Compound | MBC [1] [µg/mL] | diameter of the inhibition zone (DIZ) [2] [mm] | diameter of the inhibition zone (DIZ) [3] [mm] | MIC [4] [µg/mL] | MFC [5] [µg/mL] | Ratio [6] | diameter of the inhibition zone (DIZ) [7] [mm] | MBC [8] [µg/mL] | MIC [9] [µg/mL] | MBC [10] [µg/mL] | diameter of the inhibition zone (DIZ) [11] [mm] | MBC [12] [µg/mL] | MIC [13] [µg/mL] | diameter of the inhibition zone (DIZ) [14] [mm] | MIC [15] [µg/mL] | MIC [16] [µg/mL] | Ratio [17]
COc1ccc(OC)c(/C=N/N=c2\scc(-c3cc(O)ccc3O)n2-c2ccc(C)cc2)c1 | 50 (≈ 108 µM) | 14 | 14 | 50 (≈ 108 µM) | 50 (≈ 108 µM) | 2 | 17 | 25 (≈ 54.2 µM) | 25 (≈ 54.2 µM) | 25 (≈ 54.2 µM) | 14 | 50 (≈ 108 µM) | 12.5 (≈ 27.1 µM) | 17 | 25 (≈ 54.2 µM) | 12.5 (≈ 27.1 µM) | 
COc1ccc(/C=N/N=c2\scc(C3=CC(=O)C=CC3=O)n2-c2ccc(C)cc2)cc1 | 25 (≈ 58.2 µM) | 14 | 16 | 50 (≈ 116 µM) | 50 (≈ 116 µM) | 4 | 16 | 50 (≈ 116 µM) | 25 (≈ 58.2 µM) | 50 (≈ 116 µM) | 15 | 50 (≈ 116 µM) | 50 (≈ 116 µM) | 14 | 12.5 (≈ 29.1 µM) | 50 (≈ 116 µM) | 2
COc1cc(/C=N/N=c2\scc(C3=CC(=O)C=CC3=O)n2-c2ccc(Cl)cc2)ccc1O | 100 (≈ 215 µM) | 15 | 16 | 50 (≈ 107 µM) | 50 (≈ 107 µM) |  | 16 | 100 (≈ 215 µM) | 100 (≈ 215 µM) | 100 (≈ 215 µM) | 15 | 100 (≈ 215 µM) | 100 (≈ 215 µM) | 14 | 50 (≈ 107 µM) | 100 (≈ 215 µM) | 
COc1cc(/C=N/N=c2\scc(C3=CC(=O)C=CC3=O)n2-c2ccccc2)ccc1O | 100 (≈ 232 µM) | 12 | 15 | 25 (≈ 57.9 µM) | 50 (≈ 116 µM) |  | 15 | 50 (≈ 116 µM) | 100 (≈ 232 µM) | 100 (≈ 232 µM) | 14 | 100 (≈ 232 µM) | 25 (≈ 57.9 µM) | 15 | 100 (≈ 232 µM) | 50 (≈ 116 µM) | 
COc1ccc(OC)c(/C=N/N=c2\scc(C3=CC(=O)C=CC3=O)n2-c2ccc(C)cc2)c1 | 50 (≈ 109 µM) | 13 | 16 | 25 (≈ 54.4 µM) | 50 (≈ 109 µM) |  | 14 | 25 (≈ 54.4 µM) | 25 (≈ 54.4 µM) | 25 (≈ 54.4 µM) | 14 | 50 (≈ 109 µM) | 12.5 (≈ 27.2 µM) | 15 | 25 (≈ 54.4 µM) | 12.5 (≈ 27.2 µM) | 
COc1ccc(/C=N/N=c2\scc(-c3cc(O)ccc3O)n2-c2ccc(C)cc2)cc1O | 50 (≈ 112 µM) | 14 | 16 | 12.5 (≈ 27.9 µM) | 25 (≈ 55.9 µM) | 2 | 14 | 50 (≈ 112 µM) | 25 (≈ 55.9 µM) | 50 (≈ 112 µM) | 13 | 50 (≈ 112 µM) | 25 (≈ 55.9 µM) | 14 | 25 (≈ 55.9 µM) | 25 (≈ 55.9 µM) | 
COc1ccc(/C=N/N=c2\scc(-c3cc(O)ccc3O)n2-c2ccccc2)cc1O | 25 (≈ 57.7 µM) | 14 | 16 | 100 (≈ 231 µM) | 100 (≈ 231 µM) | 4 | 24 | 100 (≈ 231 µM) | 50 (≈ 115 µM) | 25 (≈ 57.7 µM) | 12 | 50 (≈ 115 µM) | 100 (≈ 231 µM) | 15 | 12.5 (≈ 28.8 µM) | 12.5 (≈ 28.8 µM) | 
COc1ccc(/C=N/N=c2\scc(C3=CC(=O)C=CC3=O)n2-c2ccccc2)cc1 | 50 (≈ 120 µM) | 15 | 15 | 50 (≈ 120 µM) | 50 (≈ 120 µM) |  | 16 | 50 (≈ 120 µM) | 25 (≈ 60.2 µM) | 50 (≈ 120 µM) | 15 | 50 (≈ 120 µM) | 50 (≈ 120 µM) | 15 | 50 (≈ 120 µM) | 50 (≈ 120 µM) | 
COc1ccc(/C=N/N=c2\scc(-c3cc(O)ccc3O)n2-c2ccc(C)cc2)cc1 | 50 (≈ 116 µM) | 15 | 15 | 100 (≈ 232 µM) | 100 (≈ 232 µM) |  | 15 | 50 (≈ 116 µM) | 12.5 (≈ 29 µM) | 50 (≈ 116 µM) | 16 | 25 (≈ 57.9 µM) | 50 (≈ 116 µM) | 13 | 50 (≈ 116 µM) | 50 (≈ 116 µM) | 
COc1ccc(/C=N/N=c2\scc(-c3cc(O)ccc3O)n2-c2ccc(Cl)cc2)cc1O | 100 (≈ 214 µM) | 12 | 14 | 25 (≈ 53.4 µM) | 50 (≈ 107 µM) |  | 13 | 50 (≈ 107 µM) | 100 (≈ 214 µM) | 100 (≈ 214 µM) | 14 | 100 (≈ 214 µM) | 25 (≈ 53.4 µM) | 14 | 100 (≈ 214 µM) | 50 (≈ 107 µM) | 
COc1cc(/C=N/N=c2\scc(-c3cc(O)ccc3O)n2-c2ccccc2)ccc1O | 50 (≈ 115 µM) | 15 | 15 | 12.5 (≈ 28.8 µM) | 25 (≈ 57.7 µM) |  | 14 | 25 (≈ 57.7 µM) | 12.5 (≈ 28.8 µM) | 50 (≈ 115 µM) | 15 | 25 (≈ 57.7 µM) | 12.5 (≈ 28.8 µM) | 16 | 50 (≈ 115 µM) | 50 (≈ 115 µM) | 
